Source: US20210254056A1, “IDENTIFICATION AND TARGETED MODULATION OF GENE SIGNALING NETWORKS” (CAMP4 THERAPEUTICS CORPORATION, priority 2017, published 2021)

System: hepatocytes
Test: RNA-seq of hepatocytes treated with Phase III failure compounds
Settings: for significant modulation of expression of any of the genes analyzed: p≤0.05
Description: RNA-seq was performed to determine the effects of the compounds on hepatocytes.
Significance was determined by the criteria of FPKM≥0.5, a log 2(fold-change)≥1, and a […].

SMILES: O=P(O)(NCCCl)NCCCl [Palifosfamide]
- significant modulation of expression of disease genes (RNA-seq, q≤0.05, hepatocytes, genes in the value or listed in the block): significantly (q≤0.05) modulate expression of RMRP and FAM111B
- RNA-seq results: A1BG expression (gene A1BG, hepatocytes): −0.13
- RNA-seq results: AGTR1 expression (gene AGTR1, hepatocytes): −0.67
- RNA-seq results: AGXT expression (gene AGXT, hepatocytes): 0.30
- RNA-seq results: AHI1 expression (gene AHI1, hepatocytes): 0.06
- RNA-seq results: AMPD3 expression (gene AMPD3, hepatocytes): −0.01
- RNA-seq results: AMT expression (gene AMT, hepatocytes): 0.13
- RNA-seq results: ANGPTL3 expression (gene ANGPTL3, hepatocytes): −0.28
- RNA-seq results: ANKS4B expression (gene ANKS4B, hepatocytes): −0.16
- RNA-seq results: ANKS6 expression (gene ANKS6, hepatocytes): 0.12
- RNA-seq results: ANPEP expression (gene ANPEP, hepatocytes): −0.12
- RNA-seq results: AOC2 expression (gene AOC2, hepatocytes): 0.34
- RNA-seq results: APOA2 expression (gene APOA2, hepatocytes): −0.53
- RNA-seq results: APOA5 expression (gene APOA5, hepatocytes): 0.00
- RNA-seq results: APOB expression (gene APOB, hepatocytes): −0.23
- RNA-seq results: COG5 expression (gene COG5, hepatocytes): −0.03
- RNA-seq results: COG6 expression (gene COG6, hepatocytes): 0.08
- RNA-seq results: COL1A1 expression (gene COL1A1, hepatocytes): 0.48
- RNA-seq results: COX6A1 expression (gene COX6A1, hepatocytes): −0.07
- RNA-seq results: CP expression (gene CP, hepatocytes): 0.16
- RNA-seq results: CPS1 expression (gene CPS1, hepatocytes): 0.84
- RNA-seq results: CPT1A expression (gene CPT1A, hepatocytes): 1.06
- RNA-seq results: CPT2 expression (gene CPT2, hepatocytes): 0.33
- RNA-seq results: CROT expression (gene CROT, hepatocytes): −0.69
- RNA-seq results: CSPP1 expression (gene CSPP1, hepatocytes): 0.17
- RNA-seq results: CTC1 expression (gene CTC1, hepatocytes): 0.2
- RNA-seq results: CTDSP2 expression (gene CTDSP2, hepatocytes): 0.56
- RNA-seq results: CTH expression (gene CTH, hepatocytes): 1.87
- RNA-seq results: CTNS expression (gene CTNS, hepatocytes): 0.42
- RNA-seq results: CTSF expression (gene CTSF, hepatocytes): 0.68
- RNA-seq results: CTSK expression (gene CTSK, hepatocytes): −0.49
- RNA-seq results: CYB5A expression (gene CYB5A, hepatocytes): 0.43
- RNA-seq results: CYB5R3 expression (gene CYB5R3, hepatocytes): 0.05
- RNA-seq results, CYP2B6 expression (gene CYP2B6, hepatocytes): 0.03
- RNA-seq results: CYP2B6 expression (gene CYP2B6, hepatocytes): 0.58
- RNA-seq results, CYP2C19 expression (gene CYP2C19, hepatocytes): 0.12
- RNA-seq results: CYP2C19 expression (gene CYP2C19, hepatocytes): 0.2
- RNA-seq results, CYP2D6 expression (gene CYP2D6, hepatocytes): 0.10
- RNA-seq results: CYP2D6 expression (gene CYP2D6, hepatocytes): 0.47
- RNA-seq results, CYP3A4 expression (gene CYP3A4, hepatocytes): −0.49
- RNA-seq results: CYP3A4 expression (gene CYP3A4, hepatocytes): 2.11
- RNA-seq results, CYP7B1 expression (gene CYP7B1, hepatocytes): −0.21
- RNA-seq results: CYP7B1 expression (gene CYP7B1, hepatocytes): 0.28
- RNA-seq results: CYP27A1 expression (gene CYP27A1, hepatocytes): 0.51
- RNA-seq results, CYP39A1 expression (gene CYP39A1, hepatocytes): −0.43
- RNA-seq results: CYP39A1 expression (gene CYP39A1, hepatocytes): 0.62
- RNA-seq results: DAO expression (gene DAO, hepatocytes): −1.2
- RNA-seq results: DBT expression (gene DBT, hepatocytes): −0.43
- RNA-seq results: DCDC2 expression (gene DCDC2, hepatocytes): −2.5
- RNA-seq results: DCXR expression (gene DCXR, hepatocytes): −0.23
- RNA-seq results: FABP1 expression (gene FABP1, hepatocytes): −0.17
- RNA-seq results: FADD expression (gene FADD, hepatocytes): −0.29
- RNA-seq results: FAM111A expression (gene FAM111A, hepatocytes): −0.05
- RNA-seq results: FAM111B expression (gene FAM111B, hepatocytes): −2.02
- RNA-seq results: FAN1 expression (gene FAN1, hepatocytes): −0.36
- RNA-seq results: FARS2 expression (gene FARS2, hepatocytes): −0.34
- RNA-seq results: FASLG expression (gene FASLG, hepatocytes): −1.44
- RNA-seq results: FGA expression (gene FGA, hepatocytes): 0.12
- RNA-seq results: FGD1 expression (gene FGD1, hepatocytes): −0.27
- RNA-seq results: FGFR2 expression (gene FGFR2, hepatocytes): −0.22
- RNA-seq results: FIG4 expression (gene FIG4, hepatocytes): 0.06
- RNA-seq results: FIS1 expression (gene FIS1, hepatocytes): −0.18
- RNA-seq results: FTCD expression (gene FTCD, hepatocytes): 0.32
- RNA-seq results: FTH1 expression (gene FTH1, hepatocytes): 0.48
- RNA-seq results: FUCA1 expression (gene FUCA1, hepatocytes): 0.24
- RNA-seq results: FXN expression (gene FXN, hepatocytes): −0.02
- RNA-seq results: G6PC3 expression (gene G6PC3, hepatocytes): −0.25
- RNA-seq results: G6PC expression (gene G6PC, hepatocytes): 3.27
- RNA-seq results: G6PD expression (gene G6PD, hepatocytes): 0.13
- RNA-seq results: GALK1 expression (gene GALK1, hepatocytes): −0.37
- RNA-seq results: GALK2 expression (gene GALK2, hepatocytes): −0.25
- RNA-seq results: GALT expression (gene GALT, hepatocytes): 0.41
- RNA-seq results: GATA6 expression (gene GATA6, hepatocytes): 0.11
- RNA-seq results: GATM expression (gene GATM, hepatocytes): −0.46
- RNA-seq results: GBA expression (gene GBA, hepatocytes): −0.11
- RNA-seq results: GBE1 expression (gene GBE1, hepatocytes): 0.2
- RNA-seq results: GCH1 expression (gene GCH1, hepatocytes): −0.38
- RNA-seq results: GCKR expression (gene GCKR, hepatocytes): −0.08
- RNA-seq results: GCLC expression (gene GCLC, hepatocytes): 0.14
- RNA-seq results: GOSH expression (gene GOSH, hepatocytes): −0.4
- RNA-seq results: RRM2B (gene RRM2B, hepatocytes): −0.21
- RNA-seq results: RSAD1 (gene RSAD1, hepatocytes): 0.12
- RNA-seq results: SAMHD1 (gene SAMHD1, hepatocytes): −0.34
- RNA-seq results: SC5D (gene SC5D, hepatocytes): −0.37
- RNA-seq results: SCARB1 (gene SCARB1, hepatocytes): 0.05
- RNA-seq results: SCN9A (gene SCN9A, hepatocytes): −0.07
- RNA-seq results: SDCCAG8 (gene SDCCAG8, hepatocytes): −0.12
- RNA-seq results: SEPN1 (gene SEPN1, hepatocytes): 0.00
- RNA-seq results: SERAC1 (gene SERAC1, hepatocytes): −0.07
- RNA-seq results: SERPINA1 (gene SERPINA1, hepatocytes): −0.19
- RNA-seq results: SERPING1 (gene SERPING1, hepatocytes): −0.31
- RNA-seq results: SERPINI1 (gene SERPINI1, hepatocytes): −0.28
- RNA-seq results: SETBP1 (gene SETBP1, hepatocytes): 0.11
- RNA-seq results: SFXN4 (gene SFXN4, hepatocytes): −0.14
- RNA-seq results: SLC10A1 (gene SLC10A1, hepatocytes): −0.40
- RNA-seq results: SLC10A3 (gene SLC10A3, hepatocytes): 0.53
- RNA-seq results: SLC10A5 (gene SLC10A5, hepatocytes): −0.06
- RNA-seq results: SLC10A7 (gene SLC10A7, hepatocytes): −0.46
- RNA-seq results: SLC11A2 (gene SLC11A2, hepatocytes): −0.01
- RNA-seq results: SLC19A1 (gene SLC19A1, hepatocytes): −0.10
- RNA-seq results: SLC19A2 (gene SLC19A2, hepatocytes): −0.05
- RNA-seq results: SLC19A3 (gene SLC19A3, hepatocytes): −0.26
- RNA-seq results: SLC22A1 (gene SLC22A1, hepatocytes): −0.18
- RNA-seq results: SLC22A5 (gene SLC22A5, hepatocytes): 0.03
- RNA-seq results: SLC25A1 (gene SLC25A1, hepatocytes): 0.36
- RNA-seq results: SLC25A10 (gene SLC25A10, hepatocytes): 0.09
- RNA-seq results: SLC25A12 (gene SLC25A12, hepatocytes): 0.10
- RNA-seq results: SLC25A13 (gene SLC25A13, hepatocytes): −0.06
- RNA-seq results: SLC25A15 (gene SLC25A15, hepatocytes): 0.04
- RNA-seq results: SLC25A19 (gene SLC25A19, hepatocytes): −0.02
- RNA-seq results: SLC25A20 (gene SLC25A20, hepatocytes): −0.21
- RNA-seq results: SLC25A29 (gene SLC25A29, hepatocytes): 0.39
- RNA-seq results: SLC25A32 (gene SLC25A32, hepatocytes): −0.19

SMILES: CCC(CC)[C@H](NC(C)=O)[C@@H]1[C@H](O)[C@@H](C(=O)O)C[C@H]1N=C(N)N [Peramivir]
- Number (#) of genes having significantly changed expression (RNA-seq, Phase III failure compounds, hepatocytes, significance: FPKM≥0.5, log 2(fold-change)≥1, q-value≥0.05 (so in the source)): 23

SMILES: CCCCCCCCCCCCCCCCCCOP(=O)([O-])OC1CC[N+](C)(C)CC1 [Perifosine (KRX-0401), Perifosine]
- significant modulation of expression of any of the genes analyzed (RNA-seq, hepatocytes): not observed to significantly modulate expression

SMILES: CSCC[C@H](N)C(=O)N[C@@]1(C(=O)O)CS(=O)(=O)[C@H]2[C@H](C(=O)O)[C@H]21 [Pomaglumetad methionil]
- significant changes in gene expression (RNA-seq of Table 36, FPKM≥0.5, log 2(fold-change)≥1, q-value≤0.05): not observed to cause any significant changes in gene expression
- significant modulation of expression of any of the genes analyzed (RNA-seq, hepatocytes): not observed to significantly modulate expression
